According to patent US20220089602A1, “COMPOUNDS THAT INDUCE FERROPTIC CELL DEATH” (The Board of Trustees of the University of Illinois, priority 2019, published 2022):
Entries after “also recorded” stand apart in the source; their conditions may differ.

What was measured:
[1] = tested on: ES-2 cell line; experiment: 72 hr cell viability assay (Alamar Blue), dose response IC50; format: cell-based; conditions: for anticancer activity (in words): 72 hr cell viability assay, ES-2 cells, relative to ferroptocide; for IC50: Homo sapiens, 72 hr, ES-2 cell line, Alamar Blue fluorescence, mean ± s.e.m., n ≥ 3
Description: 40 μL of media was added to each well of a 384-well tissue culture-treated plate. 3×100 nL of compound in DMSO was then pin-transferred from compound storage plates (2 mM stocks) into media-containing wells using the Platemate Plus at the UIUC High Throughput Screening Facility. A 100,000 cells/mL suspension of ES-2 cells was prepared, and 10 μL was added to each well for a final concentration of 1000 cells/well. Doxorubicin (100 μM final) was used as a positive control. Plates were sealed with gas-permeable seals and incubated at 37° C. for 72 h. After incubation, 5 μL of Alamar blue (440 μM resazurin in sterile PBS) was added and allowed to incubate for 3-4 h, until visible color change occurred. Fluorescence was measured in a Molecular Devices SpectraMax 3 (excitation=555 nm, emission=585 nm, emission cutoff=570 nm).
To a 384-well plate, 40 μL of 1.25× compound dilution or 1.25% DMSO-containing media was added (final volume of 1% DMSO). Concentrations of compounds tested were 100 μM to 100 nM. On each plate at least 3 technical replicates per compound were performed. Next, 10 μL of a 100,000 cells/mL suspension was added to each well, yielding a final concentration of 1,000 cells/well. To three wells in column 2 was added 1 μL of 10 mM doxorubicin (final concentration of 200 μM) as positive control of cell death. Plates were sealed with gas-permeable seals and incubated at 37° C. for 72 h. At that time, 5 μL of Alamar blue (440 μM resazurin in sterile PBS) was added and plates were incubated for 3-4 hours. Fluorescence was read on a Molecular Devices SpectraMax 3 (excitation=555 nm, emission=585 nm, emission cutoff=570 nm). Wells were normalized to the average of untreated wells (0% cell death). The data were plotted as compound concentration versus percent dead cells and fitted to a logistic-dose response curve using OriginPro 2015 (OriginLab, Northampton, Mass.). The data were generated in triplicate, and IC50 values are reported as the average of three separate experiments along with standard error of the mean.

[2] = tested on: ES-2 cells; experiment: Confocal microscopy competition with fluorescent analogue P30; format: cell-based; conditions: pretreatment at 3× IC50 for 30 min, then P30 (5 μM)
Description: ES-2 cells (3×10^5 cell) were attached overnight in […] petri dish plates containing 2 ml of RPMI media. Prior to imaging, cells were stained for 30 min with Mitotracker Red CMXRoss at 100 nM final concentration. Upon media replacement, samples were pre-treated with 3× IC50 of ferroptocide, P27, L1, QQ1 for 30 min followed by treatment with 5 μM P30 for an additional 30 min and a PBS wash. PBS or phenol free media was added to each dish and cells were stained with Hoechst 33342 (1 μg/mL).

[3] = In vitro glutathione assay (LC-MS); format: physicochemical; conditions: 100 μM compound, 5 mM glutathione, PBS, 37° C.
Description: To an eppendorf tube added, 245 μL of 1×PBS, 5 μL of 10 mM DMSO stock of ferroptocide or P23 and 250 μL of reduced GSH (5 mM final concentration). Reactions were vortexed briefly and incubated at 37° C. Adduct formation was monitored at the indicated time points (0, 0.5, 1, 2, 3, 24 hr) by mixing an aliquot of 50 μL from the reaction mixture with 50 μL of MeOH before LC/MS analysis.

| SMILES | anticancer activity (in words) [1] | competition of P30 staining [2] | IC50 [1] [µM] | reactivity with excess glutathione (in words) [3] |
| --- | --- | --- | --- | --- |
| CC1=CC(C)=[N+]2C1=Cc1ccc(CCC(=O)NCCCn3cc(CN4C(=O)C5CC=C([C@@H]6C[C@@H](OC(=O)CCl)[C@]7(C)[C@H](C)CC[C@]8(C[C@H](O)C(=O)[C@]87O)[C@H]6C)CC5C4=O)nn3)n1[B-]2(F)F (some centres unmarked) [Compound P30] | retained anticancer activity similar to ferroptocide; also recorded: retain biological activity | – | – | – |
| C=CC1CN2CCC1CC2[C@H](OC(=O)CCl)c1ccnc2ccc(OC)cc12 (some centres unmarked) [QQ1] | – | non-competing compounds | – | – |
| CC(=O)OCC(=O)O[C@@H]1C[C@@H](C2=CCn3c(=O)n(-c4ccccc4)c(=O)n3C2)[C@H](C)[C@@]23CC[C@@H](C)[C@]1(C)[C@]2(O)C(=O)[C@@H](O)C3 [Compound P24] | no anticancer activity | – | > 100 | – |
| CO[C@H]1C[C@@]23CC[C@@H](C)[C@@](C)([C@H](OC(C)=O)C[C@@H](C4=CCn5c(=O)n(-c6ccccc6)c(=O)n5C4)[C@@H]2C)[C@]3(O)C1=O [Compound P21] | eliminated activity | – | > 100 | – |
| C[C@@H]1CC[C@@]23C[C@H](O)C(=O)[C@@]2(O)[C@]1(C)[C@H](OC(=O)CI)C[C@@H](C1=CCn2c(=O)n(-c4ccccc4)c(=O)n2C1)[C@@H]3C [Compound P23] | greater potency in cells | – | 0.24 ± 0.002 | rapid reaction |
| CO[C@H]1C[C@@]23CC[C@@H](C)[C@@](C)([C@H](OC(=O)C(Cl)Cl)C[C@@H](C4=CCn5c(=O)n(-c6ccccc6)c(=O)n5C4)[C@@H]2C)[C@]3(O)C1=O [Compound P25] | no anticancer activity | – | > 100 | – |
| CO[C@H]1C[C@@]23CC[C@@H](C)[C@@](C)([C@H](OC(=O)CCl)C[C@@H](C4=CCn5c(=O)n(-c6ccccc6)c(=O)n5C4)[C@@H]2C)[C@]3(O)C1=O [Compound P19] | did not change the activity | – | 1.9 ± 0.1 | – |
| CC(=O)O[C@H]1C[C@@]23CC[C@@H](C)[C@@](C)([C@H](OC(=O)CCl)C[C@@H](C4=CCn5c(=O)n(-c6ccccc6)c(=O)n5C4)[C@@H]2C)[C@]3(O)C1=O [Compound P20] | did not change the activity | – | 1.4 ± 0.5 | – |
| C[C@@H]1CC[C@@]23C[C@H](O)C(=O)[C@@]2(O)[C@]1(C)[C@H](OC(=O)CCl)C[C@@H](C1=CCC2C(=O)N(c4ccccc4)C(=O)C2C1)[C@@H]3C (some centres unmarked) [Compound P28] | minimal loss in activity; also recorded: retain biological activity | – | – | – |
| CC[C@H](C)C(=O)O[C@H]1C[C@@H](C)C=C2C=C[C@H](C)[C@H](CC[C@@H]3C[C@@H](OC(=O)CCl)CC(=O)O3)[C@H]21 [Compound L1] | – | non-competing compounds | – | – |
| CO[C@H]1C[C@@]23CC[C@@H](C)[C@@](C)([C@H](OC(=O)c4ccco4)C[C@@H](C4=CCn5c(=O)n(-c6ccccc6)c(=O)n5C4)[C@@H]2C)[C@]3(O)C1=O [Compound P26] | no anticancer activity | – | > 100 | – |
| C=C[C@]1(C)C[C@@H](OC(=O)CCl)[C@]2(C)[C@H](C)CC[C@]3(CCC(=O)[C@H]32)[C@@H](C)[C@@H]1O [Compound P27] | – | non-competing compounds | – | – |
| C[C@@H]1CC[C@@]23C[C@H](O)C(=O)[C@@]2(O)[C@]1(C)[C@H](OC(=O)CF)C[C@@H](C1=CCn2c(=O)n(-c4ccccc4)c(=O)n2C1)[C@@H]3C [Compound P22] | greatly diminished anticancer activity | – | 34 ± 5.7 | – |
| C#CCN1C(=O)C2CC=C([C@@H]3C[C@@H](OC(=O)CCl)[C@]4(C)[C@H](C)CC[C@]5(C[C@H](O)C(=O)[C@]54O)[C@H]3C)CC2C1=O (some centres unmarked) [Compound P29] | retained anticancer activity similar to ferroptocide; also recorded: retain biological activity | – | – | – |
